# Measured values reported in PubChem BioAssay AID248 (DTP/NCI, 2004).
# Several values for one entry are separate records, joined by “and”; a condition that tells them apart may be missing. Identical values can stand only once. Inconclusive results and toxic doses are left out.
# System: L1210 leukemia ip in BDF1 mice, survival T/C
# Experiment: NCI In Vivo Anticancer Drug Screen. Data for tumor model L1210 Leukemia (intraperitoneal) in B6D2F1 (BDF1) mice
# Settings: endpoint: mean survival time, higher = longer survival
# Outline: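 Mice bearing the transplanted tumor received compound or vehicle. Survival of the treated group was divided by that of the vehicle-treated control group to give the ratio.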
# [1] = dose: 100.0 mg/kg/injection, schedule: Q04DX002 (ip), vehicle: Klucel (hydroxypropylcellulose) (HPC)
# [2] = dose: 200.0 mg/kg/injection, schedule: Q04DX002 (ip), vehicle: Klucel (hydroxypropylcellulose) (HPC)
# [3] = dose: 400.0 mg/kg/injection, schedule: Q04DX002 (ip), vehicle: Klucel (hydroxypropylcellulose) (HPC)
# [4] = dose: 100.0 mg/kg/injection, schedule: Q04DX003 (ip), vehicle: saline with Tween-80
# [5] = dose: 200.0 mg/kg/injection, schedule: Q04DX003 (ip), vehicle: saline with Tween-80
# [6] = dose: 100.0 mg/kg/injection, schedule: Q04DX003 (ip), vehicle: saline
# [7] = dose: 50.0 mg/kg/injection, schedule: Q01DX009 (ip), vehicle: saline
# [8] = dose: 100.0 mg/kg/injection, schedule: Q01DX009 (ip), vehicle: saline
# [9] = dose: 10.0 mg/kg/injection, schedule: Q01DX001 (ip), vehicle: saline
# [10] = dose: 100.0 mg/kg/injection, schedule: Q01DX009 (ip), vehicle: other
# [11] = dose: 200.0 mg/kg/injection, schedule: Q01DX009 (ip), vehicle: other
# [12] = dose: 400.0 mg/kg/injection, schedule: Q01DX009 (ip), vehicle: other
# [13] = dose: 50.0 mg/kg/injection, schedule: Q01DX009 (ip), vehicle: saline with Tween-80
# [14] = dose: 100.0 mg/kg/injection, schedule: Q01DX009 (ip), vehicle: saline with Tween-80
# [15] = dose: 200.0 mg/kg/injection, schedule: Q01DX009 (ip), vehicle: saline with Tween-80
# [16] = dose: 400.0 mg/kg/injection, schedule: Q04DX003 (ip), vehicle: saline with Tween-80
# [17] = dose: 100.0 mg/kg/injection, schedule: Q04DX003 (ip), vehicle: Klucel (hydroxypropylcellulose) (HPC)
# [18] = dose: 20.0 mg/kg/injection, schedule: Q01DX001 (ip), vehicle: saline
smiles,measurement,setting,value
O=C(O)c1ccc(CCCCBr)cc1,T/C,[1],96 % of control
same,T/C,[2],100 % of control
same,T/C,[3],96 % of control
c1cc[c]([Sn]([S]c2nc3ccccc3s2)([c]2ccccc2)[c]2ccccc2)cc1,T/C,"dose: 5.0 mg/kg/injection, schedule: Q04DX002 (ip), vehicle: saline with Tween-80",104 % of control
same,T/C,"dose: 10.0 mg/kg/injection, schedule: Q04DX002 (ip), vehicle: saline with Tween-80",97 % of control
same,T/C,"dose: 20.0 mg/kg/injection, schedule: Q04DX002 (ip), vehicle: saline with Tween-80",97 % of control
CSc1cc(C)c(OC(=O)Nc2c(C)cccc2C)c(CO)c1,T/C,[4],86 % of control
same,T/C,[5],90 % of control
COc1ccc(C(C#N)CC(=O)c2ccc(OCc3ccccc3)c(OC)c2)cc1OC (configuration not stated),T/C,"dose: 75.0 mg/kg/injection, schedule: Q01DX009 (ip), vehicle: other",88 % of control
same,T/C,[6],90 % of control
same,T/C,"dose: 150.0 mg/kg/injection, schedule: Q01DX009 (ip), vehicle: other",90 % of control
same,T/C,"dose: 200.0 mg/kg/injection, schedule: Q04DX003 (ip), vehicle: saline",96 % of control
same,T/C,"dose: 300.0 mg/kg/injection, schedule: Q01DX009 (ip), vehicle: other",95 % of control
same,T/C,"dose: 400.0 mg/kg/injection, schedule: Q04DX003 (ip), vehicle: saline",94 % of control
same,T/C,"dose: 600.0 mg/kg/injection, schedule: Q01DX009 (ip), vehicle: other",102 % of control
CN(C)/C=C1\C(=O)Nc2c1c(=O)n(C)c(=O)n2C,T/C,[7],93 % of control
same,T/C,[8],90 % of control
COc1cc(N2C(=O)C=CC2=O)ccc1N1C(=O)C=CC1=O,T/C,"dose: 5.0 mg/kg/injection, schedule: Q01DX001 (ip), vehicle: saline",111 % of control
same,T/C,[9],111 % of control
CN1C(=O)C2(c3ccccc31)C1CC3C(CO1)C1C2C3(CO)C[N+]1(C)C (configuration not stated),T/C,"dose: 100.0 mg/kg/injection, schedule: Q01DX001 (ip), vehicle: saline",97 % of control
same,T/C,"dose: 200.0 mg/kg/injection, schedule: Q01DX001 (ip), vehicle: saline",102 % of control
CCOC(=O)C(OCc1ccccc1)(C(=O)NCCc1ccc(OC)c(OC)c1)C(C)C (configuration not stated),T/C,"dose: 25.0 mg/kg/injection, schedule: Q01DX009 (ip), vehicle: other",108 % of control
same,T/C,"dose: 50.0 mg/kg/injection, schedule: Q01DX009 (ip), vehicle: other",108 % of control
same,T/C,[10],103 % of control
same,T/C,[11],99 % of control
same,T/C,[12],91 % of control
COc1cc(/C=C/C(C)=O)ccc1O,T/C,[13],101 % of control
same,T/C,[14],101 % of control
same,T/C,[4],93 % of control
same,T/C,[15],98 % of control
same,T/C,[5],98 % of control
same,T/C,[16],98 % of control
O=C1OC(C(O)C(O)C(O)CO)C(O)C1O (configuration not stated),T/C,"dose: 100.0 mg/kg/injection, schedule: Q04DX002 (ip), vehicle: saline",96 % of control
same,T/C,"dose: 200.0 mg/kg/injection, schedule: Q04DX002 (ip), vehicle: saline",96 % of control
same,T/C,"dose: 400.0 mg/kg/injection, schedule: Q04DX002 (ip), vehicle: saline",108 % of control
CCOc1ccc(/C=N/NC(=O)C(O)c2ccccc2)cc1OC (configuration not stated),T/C,[14],97 % of control
same,T/C,[15],92 % of control
same,T/C,"dose: 400.0 mg/kg/injection, schedule: Q01DX009 (ip), vehicle: saline with Tween-80",90 % of control
Cc1cccc(C)c1OC(=O)Nc1cccc(Cl)c1,T/C,[1],114 % of control
same,T/C,[2],105 % of control
same,T/C,[3],105 % of control
C=CCn1c2c(c3ccccc31)CCC2,T/C,[13],86 % of control
same,T/C,[14],93 % of control
CN(N=O)C(=O)NCCSSCCNC(=O)N(C)N=O,T/C,"dose: 5.0 mg/kg/injection, schedule: Q01DX011 (ip), vehicle: carboxymethylcellulose (CMC)",107 % of control
same,T/C,"dose: 5.0 mg/kg/injection, schedule: Q01DX Z (ip), vehicle: carboxymethylcellulose (CMC)",104 % of control
same,T/C,"dose: 10.0 mg/kg/injection, schedule: Q01DX011 (ip), vehicle: carboxymethylcellulose (CMC)",102 % of control
same,T/C,"dose: 10.0 mg/kg/injection, schedule: Q01DX Z (ip), vehicle: carboxymethylcellulose (CMC)",104 % of control
same,T/C,"dose: 20.0 mg/kg/injection, schedule: Q01DX011 (ip), vehicle: carboxymethylcellulose (CMC)",112 % of control
same,T/C,"dose: 20.0 mg/kg/injection, schedule: Q01DX Z (ip), vehicle: carboxymethylcellulose (CMC)",112 % of control
same,T/C,"dose: 40.0 mg/kg/injection, schedule: Q01DX011 (ip), vehicle: carboxymethylcellulose (CMC)",161 % of control
same,T/C,"dose: 40.0 mg/kg/injection, schedule: Q01DX Z (ip), vehicle: carboxymethylcellulose (CMC)",119 % of control
C/C=C/CC1=C(O)c2ccccc2C(=O)C1=O,T/C,"dose: 100.0 mg/kg/injection, schedule: Q01DX001 (ip), vehicle: water",98 % of control
O=C(Oc1ccc(Cl)cc1Cl)c1ccc([N+](=O)[O-])cc1,T/C,[1],93 % of control
same,T/C,[2],97 % of control
same,T/C,[3],87 % of control
O=C(O)c1cccc2c1-c1ccc(Cl)cc1C2,T/C,[17],104 % of control
same,T/C,"dose: 200.0 mg/kg/injection, schedule: Q04DX003 (ip), vehicle: Klucel (hydroxypropylcellulose) (HPC)",102 % of control
CCOC(=O)C1(C(=O)OCC)C(C)CC2Nc3cc4c(cc3C(=O)N21)OCO4 (configuration not stated),T/C,"dose: 25.0 mg/kg/injection, schedule: Q04DX003 (ip), vehicle: Klucel (hydroxypropylcellulose) (HPC)",94 % of control
same,T/C,"dose: 50.0 mg/kg/injection, schedule: Q04DX003 (ip), vehicle: Klucel (hydroxypropylcellulose) (HPC)",101 % of control
same,T/C,[17],97 % of control
O=C1C(N2CCCCC2)=C(N2CC2)C(=O)C(N2CCCCC2)=C1N1CC1,T/C,"dose: 0.39 mg/kg/injection, schedule: Q04DX003 (ip), vehicle: saline",94 % of control and 96 % of control
same,T/C,"dose: 0.78 mg/kg/injection, schedule: Q04DX003 (ip), vehicle: saline",100 % of control and 103 % of control
same,T/C,"dose: 1.56 mg/kg/injection, schedule: Q04DX003 (ip), vehicle: saline",103 % of control and 107 % of control
same,T/C,"dose: 3.12 mg/kg/injection, schedule: Q04DX003 (ip), vehicle: saline",103 % of control and 107 % of control
same,T/C,"dose: 6.25 mg/kg/injection, schedule: Q04DX003 (ip), vehicle: saline",96 % of control and 100 % of control
same,T/C,[9],86 % of control
same,T/C,"dose: 12.5 mg/kg/injection, schedule: Q04DX003 (ip), vehicle: saline",103 % of control and 122 % of control
same,T/C,[18],99 % of control
same,T/C,"dose: 35.0 mg/kg/injection, schedule: Q04DX003 (ip), vehicle: saline",101 % of control
same,T/C,"dose: 40.0 mg/kg/injection, schedule: Q01DX001 (ip), vehicle: saline",93 % of control
same,T/C,"dose: 55.0 mg/kg/injection, schedule: Q04DX003 (ip), vehicle: saline",90 % of control
same,T/C,"dose: 80.0 mg/kg/injection, schedule: Q01DX001 (ip), vehicle: saline",108 % of control
same,T/C,"dose: 80.0 mg/kg/injection, schedule: Q04DX003 (ip), vehicle: saline",88 % of control
CCN(CC)CCOc1c(C(C)C)cccc1C(C)C,T/C,"dose: 12.5 mg/kg/injection, schedule: Q01DX009 (ip), vehicle: saline",101 % of control
same,T/C,"dose: 25.0 mg/kg/injection, schedule: Q01DX009 (ip), vehicle: saline",108 % of control
same,T/C,[7],108 % of control and 89 % of control
same,T/C,[6],117 % of control
C1CCC(C2CCCC[N-]2)[N-]C1.C1CCC(C2CCCC[N-]2)[N-]C1.C1CCC(C2CCCC[N-]2)[N-]C1.[Fe+6] (configuration not stated),T/C,[9],98 % of control
same,T/C,[18],104 % of control
Cc1ccc(C)c(C(=O)CCC(=O)O)c1,T/C,"dose: 25.0 mg/kg/injection, schedule: Q01DX009 (ip), vehicle: saline with Tween-80",100 % of control
same,T/C,[13],96 % of control
same,T/C,[14],105 % of control
same,T/C,[8],95 % of control
same,T/C,[4],91 % of control
same,T/C,[15],94 % of control
same,T/C,"dose: 200.0 mg/kg/injection, schedule: Q01DX009 (ip), vehicle: saline",95 % of control
same,T/C,[5],92 % of control
same,T/C,"dose: 400.0 mg/kg/injection, schedule: Q01DX009 (ip), vehicle: saline",95 % of control
same,T/C,[16],97 % of control
CCC(=O)c1cc(Cl)ccc1O,T/C,[10],100 % of control
same,T/C,[11],104 % of control
same,T/C,[12],102 % of control
